The source of these data is ChEMBL document CHEMBL1201862, “PubChem BioAssay data set” (2004).

Among the test systems are M19-MEL; SNB-78; DMS-273; DLD-1; HOP-18; DMS-114; RXF 631; XF498; LXFL 529.
Assay in all cases: NCI anticancer screen, dose series, 48 h

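Interpolation was linear, between the two tested concentrations surrounding the appropriate level; five concentrations were tested over 48 hours in 96-well plates. GI50 is the concentration that inhibits growth by half.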 Active and inactive are the calls of the source. No stated cut-off is given here; in the data, active = GI50 up to about 1.1 µM and inactive = higher.

`[O-][S+]1c2ccccc2N=C(c2ccc(Cl)cc2)CC1c1cccs1` (stereo not given): the GI50 with M19-MEL is 17.7 µM (inactive); in the test on SNB-78, 35 µM (inactive); in the test with DMS-273 it was 14.6 µM (inactive); in the test with DLD-1 it was 12.2 µM (inactive); with HOP-18, 29.2 µM (inactive); in the test with DMS-114 it was 14.6 µM (inactive).

Regarding `O=C(NCCCOC(=O)CCCCCCCCC(=O)OCCCNC(=O)NC(=O)c1c[nH]c(=O)[nH]c1=O)NC(=O)c1c[nH]c(=O)[nH]c1=O`, the GI50 with M19-MEL is > 100 µM (inactive); in the test with SNB-78, > 100 µM (inactive); in the test with DMS-273, > 100 µM (inactive); in the test on DLD-1 it was > 100 µM (inactive); with HOP-18 it was 1.49 µM (inactive); with RXF 631, > 100 µM (inactive). Also, the GI50 with XF498 and in the test on LXFL 529 was > 100 µM (inactive) in each case.

For the compound `Cn1nc2ccc3nccc(N(CCO)CCO)c3c2n1`, the GI50 in the test with M19-MEL, in the test with SNB-78, with DMS-273, in the test on DLD-1, in the test on HOP-18 and with XF498 was > 100 µM (inactive) each time. The GI50 in the test on LXFL 529 is > 100 µM (inactive).

Consider `COc1cc(OC)c(OC)cc1/C=C\c1ccnc2ccccc12`, for which the GI50 with M19-MEL is 0.851 µM (active); with SNB-78, 1.2 µM (inactive); in the test with DMS-273, 0.317 µM (active); in the test on DLD-1, 0.944 µM (active); with DMS-114 it was 0.649 µM (active); with LXFL 529, 1.45 µM (inactive).

Take `COc1ccc(/C(Cl)=C(\C=O)c2ccc(Cl)c(Cl)c2)cc1`: the GI50 is 13.1 µM (inactive) in the test with M19-MEL; 11 µM (inactive) in the test with SNB-78; 13.1 µM (inactive) in the test with DMS-273; 10.7 µM (inactive) in the test with DLD-1; 14.7 µM (inactive) in the test with HOP-18; 4.06 µM (inactive) with DMS-114. The values for the GI50 with XF498 and with LXFL 529 were 10.8 µM (inactive) and 5.81 µM (inactive), respectively.

On to `O=S(OC12CC3CC(CC(C3)C1)C2)c1cc(Cl)cc(Cl)c1OCc1ccccc1` (stereo not given), for which the GI50 in the test on M19-MEL was > 100 µM (inactive); with SNB-78, > 100 µM (inactive); in the test with DLD-1, > 100 µM (inactive); with DMS-114, 73.8 µM (inactive); with RXF 631, > 100 µM (inactive); with XF498, > 100 µM (inactive). Further, the GI50 in the test on LXFL 529 was > 100 µM (inactive).

As to `Cc1c(N(C)C)ccc2c(=O)c3cccc(CC(=O)O)c3oc12`, the GI50 in the test on M19-MEL, in the test with SNB-78, in the test with DMS-273, in the test with DLD-1, in the test on HOP-18 and in the test on DMS-114 was > 100 µM (inactive) each time. Moreover, the GI50 in the test with RXF 631 was > 100 µM (inactive).

Turning to `Brc1nc2c3ccccc3ncn2c1Br`, the GI50 was 33.5 µM (inactive) in the test with M19-MEL; 36.7 µM (inactive) with SNB-78; 30.8 µM (inactive) in the test on DMS-273; 43.6 µM (inactive) in the test on DLD-1; 14.4 µM (inactive) in the test on HOP-18; 33.4 µM (inactive) with DMS-114. Besides, the GI50 is 39.4 µM (inactive) with RXF 631, 25.8 µM (inactive) in the test on XF498 and 29.9 µM (inactive) in the test with LXFL 529.

Turning to `CCN(CC)CC1CCCCCCCCCCC1=O` (stereo not given), the GI50 with M19-MEL, in the test with SNB-78, in the test on DMS-273, in the test with DLD-1, with DMS-114 and with XF498 was > 100 µM (inactive) each time. For the same compound, the GI50 with LXFL 529 is > 100 µM (inactive).

As for `O=C1CC2C(=O)N(Cc3ccccc3)C1C(S(=O)(=O)c1ccccc1)C2S(=O)(=O)c1ccccc1` (stereo not given), the GI50 in the test with M19-MEL is 2.06 µM (inactive); in the test on SNB-78, 11.2 µM (inactive); in the test on DMS-273, 5.46 µM (inactive); in the test with DLD-1, 1.59 µM (inactive); with HOP-18 it was 3.78 µM (inactive); in the test on DMS-114 it was 1.29 µM (inactive). Further, the GI50 in the test with RXF 631 was 12.5 µM (inactive); in the test on XF498, 1.86 µM (inactive); in the test on LXFL 529, 1.31 µM (inactive).

`CC(C)OP(=O)(OC(C)C)c1nc(-c2ccccc2)n(-c2ccc([N+](=O)[O-])cc2)n1`: the GI50 in the test with M19-MEL, with DMS-273, in the test on DLD-1, in the test with DMS-114, in the test with XF498 and in the test on LXFL 529 was > 100 µM (inactive) throughout.

For the compound `COc1ccccc1CC(C)N` (stereo not given), the GI50 in the test on SNB-78, in the test on DMS-273, with DLD-1, in the test with HOP-18, in the test on DMS-114 and in the test on RXF 631 was > 100 µM (inactive) each time. Further, the GI50 in the test on XF498 and with LXFL 529 was > 100 µM (inactive) in each case.

Turning to `O=C1/C(=N\O)c2ccccc2S1(=O)=O`, the GI50 with M19-MEL, with SNB-78, in the test with DMS-273, with DLD-1, with HOP-18 and in the test with DMS-114 was > 100 µM (inactive) in each case. The GI50 with LXFL 529 is 69.2 µM (inactive).

Take `Cc1cccc(C)c1NC(=O)CCc1nnc2s/c(=C\c3ccc(N(C)C)cc3)c(=O)n12`: the GI50 was > 100 µM (inactive) with SNB-78; > 100 µM (inactive) in the test on DMS-273; > 100 µM (inactive) in the test on DLD-1; 50.6 µM (inactive) in the test on DMS-114; > 100 µM (inactive) with RXF 631; > 100 µM (inactive) with XF498. For the same compound, the GI50 with LXFL 529 is > 100 µM (inactive).

On to `CCOC(=O)C(=C=C=C(c1ccccc1)c1ccccc1)C(=O)OCC`, for which the GI50 with M19-MEL is 18.4 µM (inactive); in the test with SNB-78 it was 16.9 µM (inactive); in the test with DMS-273, 20.3 µM (inactive); in the test with DLD-1 it was 18.5 µM (inactive); with DMS-114, 18.5 µM (inactive); with RXF 631 it was 24 µM (inactive). Also, the GI50 with XF498 was 15.1 µM (inactive); with LXFL 529, 16.9 µM (inactive).

As to `CCCCS(=O)(=O)Nc1ccc(Nc2c3ccccc3nc3ccccc23)c(OC)c1`, the GI50 in the test with M19-MEL is 4.61 µM (inactive); with SNB-78 it was 5.5 µM (inactive); in the test on DMS-273 it was 0.395 µM (active); in the test with DLD-1 it was 7.6 µM (inactive); in the test on HOP-18, 7.52 µM (inactive); in the test on XF498, 2.19 µM (inactive).

As for `CC1=C(C(=O)Nc2ccc(Cl)c(Cl)c2)C(c2ccc([N+](=O)[O-])cc2)C(C(=O)Nc2ccc(Cl)c(Cl)c2)=C(C)N1`, the GI50 in the test on M19-MEL is 1.82 µM (inactive); with SNB-78, 2.82 µM (inactive); in the test with DMS-273 it was 2.91 µM (inactive); with DLD-1, 3.41 µM (inactive); in the test with HOP-18, 3.6 µM (inactive); with DMS-114, 2.88 µM (inactive). In addition, the GI50 is 2.04 µM (inactive) with RXF 631, 1.44 µM (inactive) with XF498 and 2.77 µM (inactive) in the test on LXFL 529.

For `CC(=O)O/C=C(/C=C/OC(C)=O)C(C/C=C(\C)C#CC=C(C)C)OC(C)=O` (stereo not given), the GI50 was 20.8 µM (inactive) in the test on M19-MEL; 29.9 µM (inactive) in the test with SNB-78; 50.8 µM (inactive) in the test on DMS-273; 45.8 µM (inactive) in the test on DLD-1; 33.3 µM (inactive) in the test on HOP-18; 19 µM (inactive) in the test with DMS-114. Moreover, the GI50 in the test on RXF 631 is > 100 µM (inactive); in the test on XF498 it was 37.2 µM (inactive); in the test with LXFL 529 it was 19.3 µM (inactive).

As to `COC(=O)NNc1c([N+](=O)[O-])cnn(-c2ccccc2)c1=O`, the GI50 in the test with M19-MEL was 1.87 µM (inactive); in the test with DMS-273, 1.98 µM (inactive); in the test with DLD-1 it was 2.06 µM (inactive); in the test with HOP-18, 2.82 µM (inactive); in the test with DMS-114 it was 3.37 µM (inactive); in the test with RXF 631, 2.08 µM (inactive). Besides, the GI50 with LXFL 529 is 1.73 µM (inactive).

As to `CC(=O)CCC1(c2ccccc2)OC(=O)C(C#N)=C1c1ccccc1` (stereo not given), the GI50 in the test with M19-MEL, in the test with SNB-78, in the test on DMS-273, in the test on DLD-1, in the test with DMS-114 and in the test on RXF 631 was > 100 µM (inactive) in each case. The GI50 in the test on XF498 was > 100 µM (inactive); in the test on LXFL 529 it was 59.4 µM (inactive).

Consider `O=c1[nH]c(C2CCCCC2)nc2ccc(Cl)cc12`, for which the GI50 in the test on M19-MEL, in the test with SNB-78, with DMS-273, with DMS-114 and in the test on LXFL 529 was > 100 µM (inactive) in each case.

As for `Cc1cn(C2CC(N(O)Cc3ccccc3)C(CO)O2)c(=O)[nH]c1=O` (stereo not given), the GI50 in the test with M19-MEL, with SNB-78, with DMS-273, with DMS-114, in the test with XF498 and with LXFL 529 was > 100 µM (inactive) each time.

On to `CC(=O)O[C@H]1C=CC(=O)C(C)CC1C` (stereo not given in full), for which the GI50 with M19-MEL is > 100 µM (inactive); in the test on SNB-78, > 100 µM (inactive); in the test on DMS-273, > 100 µM (inactive); with DLD-1 it was 64 µM (inactive); with DMS-114 it was > 100 µM (inactive); with RXF 631, > 100 µM (inactive). Moreover, the GI50 in the test on XF498 and in the test with LXFL 529 was > 100 µM (inactive) each time.

Consider `OC(CBr)C(O)C(O)C(O)CBr` (stereo not given), for which the GI50 in the test with M19-MEL is > 100 µM (inactive); in the test on SNB-78 it was > 100 µM (inactive); with DMS-273 it was 26.6 µM (inactive); in the test with DLD-1 it was > 100 µM (inactive); in the test with HOP-18, > 100 µM (inactive); in the test with DMS-114, 42.4 µM (inactive). Moreover, the GI50 with XF498 was 80.5 µM (inactive).
